Experimental data published in ChEMBL document CHEMBL3877252, “Fluorescein hydrazones: A series of novel non-intercalative topoisomerase IIα catalytic inhibitors induce G1 arrest and apoptosis in breast and colon cancer cells” (Eur J Med Chem, 2017).
One block for each molecule: values may come before it. The source made the active and inactive calls. No cut-off for these calls is given here.

Tests used:
[1] = molecular target: T1, DNA topoisomerase 1 (Homo sapiens) (UniProt P11387); assay: Inhibition of human topoisomerase-1 assessed as inhibition of relaxation of supercoiled pBR322 plasmid DNA at 100 uM measured after 1 hr by ethidium bromide staining based agarose gel electrophoresis relative to control
T1 sequence (whole entry): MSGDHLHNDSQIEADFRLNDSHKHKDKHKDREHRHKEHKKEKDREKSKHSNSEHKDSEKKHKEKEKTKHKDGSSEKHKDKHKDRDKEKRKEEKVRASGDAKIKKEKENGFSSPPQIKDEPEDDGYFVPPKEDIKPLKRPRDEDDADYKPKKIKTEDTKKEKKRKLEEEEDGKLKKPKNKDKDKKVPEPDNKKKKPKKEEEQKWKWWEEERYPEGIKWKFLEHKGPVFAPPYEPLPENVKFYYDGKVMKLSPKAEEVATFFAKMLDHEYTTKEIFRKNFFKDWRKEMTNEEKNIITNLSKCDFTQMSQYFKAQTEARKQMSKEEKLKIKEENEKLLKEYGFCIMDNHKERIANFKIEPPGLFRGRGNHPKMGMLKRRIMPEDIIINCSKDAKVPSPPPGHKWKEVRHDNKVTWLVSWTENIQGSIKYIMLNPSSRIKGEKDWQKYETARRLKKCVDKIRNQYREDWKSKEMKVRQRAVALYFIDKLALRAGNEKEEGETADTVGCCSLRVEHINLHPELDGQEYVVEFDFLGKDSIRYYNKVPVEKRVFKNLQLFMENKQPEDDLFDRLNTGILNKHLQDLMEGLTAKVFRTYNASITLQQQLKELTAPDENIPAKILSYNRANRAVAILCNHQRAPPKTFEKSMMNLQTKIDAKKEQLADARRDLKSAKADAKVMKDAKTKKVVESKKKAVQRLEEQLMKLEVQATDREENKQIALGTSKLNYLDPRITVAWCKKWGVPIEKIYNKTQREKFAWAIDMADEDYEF

[2] = molecular target: T1, DNA topoisomerase 1 (Homo sapiens); assay: Inhibition of human topoisomerase-1 assessed as inhibition of relaxation of supercoiled pBR322 plasmid DNA at 20 uM measured after 1 hr by ethidium bromide staining based agarose gel electrophoresis relative to control
[3] = molecular target: DNA topoisomerase 2-alpha (Homo sapiens) (UniProt P11388); assay: Inhibition of human topoisomerase-2 alpha assessed as inhibition of relaxation of supercoiled pBR322 plasmid DNA at 100 uM measured after 1 hr by ethidium bromide staining based agarose gel electrophoresis relative to control
[4] = molecular target: DNA topoisomerase 2-alpha (Homo sapiens) (UniProt P11388); assay: Inhibition of human topoisomerase-2 alpha assessed as inhibition of relaxation of supercoiled pBR322 plasmid DNA at 20 uM measured after 1 hr by ethidium bromide staining based agarose gel electrophoresis relative to control
[5] = Antiproliferative activity against human T47D cells measured after 72 hrs by CCK8 assay; assay type: functional, cell-based
[6] = Antiproliferative activity against human DU145 cells measured after 72 hrs by CCK8 assay; assay type: functional, cell-based; conditions: DU-145, 72 h
[7] = Antiproliferative activity against human HCT15 cells measured after 72 hrs by CCK8 assay; assay type: functional, cell-based; conditions: HCT-15, 72 h
[8] = Antiproliferative activity against human MCF7 cells measured after 72 hrs by CCK8 assay; assay type: functional, cell-based; conditions: MCF7, 72 h
[9] = molecular target: DNA topoisomerase 2-alpha (Homo sapiens) (UniProt P11388); assay: Poison activity at topoisomerase-2 alpha in human T47D cells assessed as DNA damage by measuring DNA tail length at 5 uM measured after 24 hrs by alkaline comet assay; assay type: cell-based
[10] = molecular target: DNA topoisomerase 2-alpha (Homo sapiens) (UniProt P11388); assay: Poison activity at topoisomerase-2 alpha in human T47D cells assessed as DNA damage by measuring DNA tail length at 10 uM measured after 24 hrs by alkaline comet assay; assay type: cell-based
[11] = Cell cycle arrest in human T47D cells assessed as decrease in cyclin D1 level measured after 24 hrs; assay type: functional, cell-based
[12] = Cell cycle arrest in human T47D cells assessed as increase in p27kip1 level measured after 24 hrs; assay type: functional, cell-based
[13] = Cell cycle arrest in human T47D cells assessed as accumulation at G1 phase at 10 uM by DAPI staining based cell analyzer; assay type: functional; conditions: TDE = time-dependent effect
[14] = Cell cycle arrest in human T47D cells assessed as decrease in cyclin D1 level at 10 uM; assay type: functional, cell-based; conditions: TDE = time-dependent effect
[15] = Cell cycle arrest in human T47D cells assessed as increase in p27kip1 level at 10 uM; assay type: functional, cell-based; conditions: TDE = time-dependent effect
[16] = tested on: T47D; assay: Induction of apoptosis in human T47D cells assessed as increase in cleaved PARP level measured after 24 hrs by Western blot analysis; assay type: functional, cell-based
[17] = tested on: T47D; assay: Induction of apoptosis in human T47D cells assessed as increase in bax level measured after 24 hrs by Western blot analysis; assay type: functional, cell-based
[18] = tested on: T47D; assay: Induction of apoptosis in human T47D cells assessed as decrease in bcl-2 level measured after 24 hrs by Western blot analysis; assay type: functional, cell-based
[19] = molecular target: DNA topoisomerase 2-alpha (Homo sapiens) (UniProt P11388); assay: Inhibition of topoisomerase-2 alpha catalytic activity in human T47D cells assessed as appearance of free protein band at 50 uM measured after 2 hrs by Western blot analysis; assay type: cell-based
[20] = Cell cycle arrest in human T47D cells assessed as accumulation at G1 phase at 1 uM after 24 hrs by DAPI staining-based cell analyzer (reference value: 51%); assay type: functional
[21] = Cell cycle arrest in human T47D cells assessed as accumulation at G1 phase at 3 uM after 24 hrs by DAPI staining-based cell analyzer (reference value: 51%); assay type: functional
[22] = Cell cycle arrest in human T47D cells assessed as accumulation at G1 phase at 10 uM after 24 hrs by DAPI staining-based cell analyzer (reference value: 51%); assay type: functional
[23] = Cell cycle arrest in human T47D cells assessed as accumulation at S phase at 1 uM after 24 hrs by DAPI staining-based cell analyzer (reference value: 26%); assay type: functional
[24] = Cell cycle arrest in human T47D cells assessed as accumulation at S phase at 3 uM after 24 hrs by DAPI staining-based cell analyzer (reference value: 26%); assay type: functional
[25] = Cell cycle arrest in human T47D cells assessed as accumulation at S phase at 10 uM after 24 hrs by DAPI staining-based cell analyzer (reference value: 26%); assay type: functional
[26] = Cell cycle arrest in human T47D cells assessed as accumulation at G2/M phase at 1 uM after 24 hrs by DAPI staining-based cell analyzer (reference value: 15%); assay type: functional
[27] = Cell cycle arrest in human T47D cells assessed as accumulation at G2/M phase at 3 uM after 24 hrs by DAPI staining-based cell analyzer (reference value: 15%); assay type: functional
[28] = Cell cycle arrest in human T47D cells assessed as accumulation at G2/M phase at 10 uM after 24 hrs by DAPI staining-based cell analyzer (reference value: 15%); assay type: functional
[29] = Cell cycle arrest in human T47D cells assessed as accumulation at G1 phase at 10 uM after 5 hrs by DAPI staining-based cell analyzer (reference value: 47 to 50%); assay type: functional
[30] = Cell cycle arrest in human T47D cells assessed as accumulation at G1 phase at 10 uM after 10 hrs by DAPI staining-based cell analyzer (reference value: 47 to 50%); assay type: functional
[31] = Cell cycle arrest in human T47D cells assessed as accumulation at G1 phase at 10 uM after 15 hrs by DAPI staining-based cell analyzer (reference value: 47 to 50%); assay type: functional
[32] = Cell cycle arrest in human T47D cells assessed as accumulation at G1 phase at 10 uM after 20 hrs by DAPI staining-based cell analyzer (reference value: 47 to 50%); assay type: functional
[33] = Cell cycle arrest in human T47D cells assessed as accumulation at S phase at 10 uM after 5 hrs by DAPI staining-based cell analyzer (reference value: 22%); assay type: functional
[34] = Cell cycle arrest in human T47D cells assessed as accumulation at S phase at 10 uM after 10 hrs by DAPI staining-based cell analyzer (reference value: 22%); assay type: functional
[35] = Cell cycle arrest in human T47D cells assessed as accumulation at S phase at 10 uM after 15 hrs by DAPI staining-based cell analyzer (reference value: 22%); assay type: functional
[36] = Cell cycle arrest in human T47D cells assessed as accumulation at S phase at 10 uM after 20 hrs by DAPI staining-based cell analyzer (reference value: 22%); assay type: functional
[37] = Cell cycle arrest in human T47D cells assessed as accumulation at G2/M phase at 10 uM after 5 hrs by DAPI staining-based cell analyzer (reference value: 18 to 20%); assay type: functional
[38] = Cell cycle arrest in human T47D cells assessed as accumulation at G2/M phase at 10 uM after 10 hrs by DAPI staining-based cell analyzer (reference value: 18 to 20%); assay type: functional
[39] = Cell cycle arrest in human T47D cells assessed as accumulation at G2/M phase at 10 uM after 15 hrs by DAPI staining-based cell analyzer (reference value: 18 to 20%); assay type: functional
[40] = Cell cycle arrest in human T47D cells assessed as accumulation at G2/M phase at 10 uM after 20 hrs by DAPI staining-based cell analyzer (reference value: 18 to 20%); assay type: functional

DNA topoisomerase 2-alpha (Homo sapiens), sequence (P11388 whole entry): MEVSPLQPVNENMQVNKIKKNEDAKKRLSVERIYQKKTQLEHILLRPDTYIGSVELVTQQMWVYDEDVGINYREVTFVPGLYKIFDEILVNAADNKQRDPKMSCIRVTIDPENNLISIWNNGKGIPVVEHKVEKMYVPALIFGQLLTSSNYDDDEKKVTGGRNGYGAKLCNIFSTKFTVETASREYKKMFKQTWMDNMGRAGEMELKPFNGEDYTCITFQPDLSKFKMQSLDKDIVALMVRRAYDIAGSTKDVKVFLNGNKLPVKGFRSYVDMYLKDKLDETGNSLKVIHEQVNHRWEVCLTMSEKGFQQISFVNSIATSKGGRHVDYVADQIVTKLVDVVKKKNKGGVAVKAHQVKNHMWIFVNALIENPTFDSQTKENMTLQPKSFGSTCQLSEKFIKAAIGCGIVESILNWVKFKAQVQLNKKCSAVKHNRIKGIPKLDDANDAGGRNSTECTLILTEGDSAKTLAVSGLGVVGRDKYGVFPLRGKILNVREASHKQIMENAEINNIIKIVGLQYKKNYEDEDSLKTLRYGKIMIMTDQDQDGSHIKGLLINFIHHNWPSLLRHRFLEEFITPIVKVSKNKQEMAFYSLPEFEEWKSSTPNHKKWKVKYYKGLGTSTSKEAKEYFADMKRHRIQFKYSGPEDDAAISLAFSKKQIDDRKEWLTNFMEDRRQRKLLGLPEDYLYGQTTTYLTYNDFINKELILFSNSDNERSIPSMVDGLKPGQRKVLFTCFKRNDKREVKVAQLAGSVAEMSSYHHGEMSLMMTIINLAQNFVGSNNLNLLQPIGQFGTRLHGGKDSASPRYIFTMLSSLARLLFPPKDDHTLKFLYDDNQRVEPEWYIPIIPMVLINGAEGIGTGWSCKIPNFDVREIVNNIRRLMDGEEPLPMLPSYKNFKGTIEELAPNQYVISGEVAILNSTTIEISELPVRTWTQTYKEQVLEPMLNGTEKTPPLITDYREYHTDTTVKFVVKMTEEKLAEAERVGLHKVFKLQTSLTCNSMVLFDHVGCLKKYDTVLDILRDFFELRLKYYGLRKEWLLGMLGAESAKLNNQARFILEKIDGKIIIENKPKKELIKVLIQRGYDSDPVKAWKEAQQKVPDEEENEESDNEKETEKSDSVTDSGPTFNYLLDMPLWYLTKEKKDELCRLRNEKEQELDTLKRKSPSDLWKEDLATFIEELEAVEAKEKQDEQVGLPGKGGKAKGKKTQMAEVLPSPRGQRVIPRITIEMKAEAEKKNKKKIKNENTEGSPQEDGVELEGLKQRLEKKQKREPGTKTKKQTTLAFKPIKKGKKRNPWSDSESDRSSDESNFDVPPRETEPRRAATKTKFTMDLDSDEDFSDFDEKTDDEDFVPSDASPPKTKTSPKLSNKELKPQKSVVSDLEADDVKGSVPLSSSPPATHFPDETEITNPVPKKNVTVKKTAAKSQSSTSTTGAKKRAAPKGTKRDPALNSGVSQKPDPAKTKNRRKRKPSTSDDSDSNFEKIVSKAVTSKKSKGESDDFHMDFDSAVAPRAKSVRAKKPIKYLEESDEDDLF

inhibition [1]: 77.8%
inhibition [2]: 4.2%
inhibition [3]: 37.9%
inhibition [4]: 2.7%
SMILES: CCOc1ccc2c(c1)Oc1cc(O)ccc1C21c2ccccc2C(=O)N1/N=C/c1ccc(OC)c(O)c1 (configuration not stated)
IC50 [5]: 1610 nM
IC50 [6]: 1930 nM
IC50 [7]: 290 nM
IC50 [8]: 3640 nM

inhibition [1]: 0%
inhibition [3]: 89.3%
inhibition [4]: 2.6%
inhibition [19]: Active
SMILES: CCOc1ccc2c(c1)Oc1cc(O)ccc1C21c2ccccc2C(=O)N1/N=C/c1cccc(O)c1 (configuration not stated)
IC50 [5]: 350 nM
IC50 [6]: 40 nM
IC50 [7]: 830 nM
IC50 [8]: 2230 nM
Activity [9]: 9.55 pixel
Activity [10]: 11.5 pixel
Activity [11]: Dose-dependent effect
Activity [12]: Dose-dependent effect
Activity [13]: Tde
Activity [14]: Tde
Activity [15]: Tde
Activity [16]: Dose-dependent effect
Activity [17]: Dose-dependent effect
Activity [18]: Dose-dependent effect
Activity [20]: 56%
Activity [21]: 57%
Activity [22]: 64%
Activity [23]: 24%
Activity [24]: 22%
Activity [25]: 20%
Activity [26]: 13%
Activity [27]: 12%
Activity [28]: 9%
Activity [29]: 59%
Activity [30]: 60%
Activity [31]: 61%
Activity [32]: 65%
Activity [33]: 21%
Activity [34]: 21%
Activity [35]: 21%
Activity [36]: 15%
Activity [37]: 12%
Activity [38]: 12%
Activity [39]: 12%
Activity [40]: 12%

The next lines start with the molecule.

SMILES: CCOc1ccc2c(c1)Oc1cc(O)ccc1C21c2ccccc2C(=O)N1/N=C/c1ccc(O)cc1 (configuration not stated)
inhibition [1]: 36.5%
inhibition [2]: 0%
inhibition [3]: 73.8%
inhibition [4]: 3.3%
IC50 [5]: 780 nM
IC50 [6]: 1060 nM
IC50 [7]: 30 nM
IC50 [8]: 4660 nM

SMILES: CCOc1ccc2c(c1)Oc1cc(O)ccc1C21c2ccccc2C(=O)N1/N=C/c1ccccc1OC (configuration not stated)
inhibition [1]: 28.1%
inhibition [3]: 58.3%
inhibition [4]: 3.3%
IC50 [5]: > 50000 nM
IC50 [6]: > 50000 nM
IC50 [7]: 670 nM
IC50 [8]: > 50000 nM

SMILES: CCOc1ccc2c(c1)Oc1cc(O)ccc1C21c2ccccc2C(=O)N1/N=C/c1ccccc1O (configuration not stated)
inhibition [1]: 39.5%
inhibition [2]: 28.1%
inhibition [3]: 78.7%
inhibition [4]: 1.9%
IC50 [5]: 430 nM
IC50 [6]: 550 nM
IC50 [7]: 1840 nM
IC50 [8]: 4740 nM
Activity [9]: 7.76 pixel
Activity [10]: 8.56 pixel
Activity [11]: Dose-dependent effect
Activity [12]: Dose-dependent effect
Activity [13]: Tde
Activity [14]: Tde
Activity [15]: Tde
Activity [16]: Dose-dependent effect
Activity [17]: Dose-dependent effect
Activity [18]: Dose-dependent effect
inhibition [19]: Active
Activity [20]: 54%
Activity [21]: 59%
Activity [22]: 60%
Activity [23]: 28%
Activity [24]: 25%
Activity [25]: 22%
Activity [26]: 14%
Activity [27]: 11%
Activity [28]: 11%
Activity [29]: 51%
Activity [30]: 55%
Activity [31]: 57%
Activity [32]: 62%
Activity [33]: 21%
Activity [34]: 22%
Activity [35]: 21%
Activity [36]: 20%
Activity [37]: 14%
Activity [38]: 13%
Activity [39]: 10%
Activity [40]: 10%
